One may read the IC50 as the concentration that gives 50% inhibition. Broadly, the GI50 is the concentration that inhibits growth by half.

The subject of data set [1] is Hs578T breast cancer cell line. As to the kind of experiment: Antiproliferative activity in Hs578T cells. It is filed as cell-based. The settings on record: Homo sapiens, Hs-578T.
In data set [2] the test system is Hs578Ts(i)8 cells. As to the kind of experiment: Antiproliferative activity in invasive Hs578Ts(i)8 cells. The format is cell-based.
Data set [3] in a line: Cytotoxicity assay in primary murine mammary epithelial cells (alamar blue). The format is cell-based, mouse. To be noted: female, CD-1, mouse, primary mammary epithelial cells, 72 h; for viability at 72 h, 10 μM: murine epithelial cells, read-out: % Viable cells; for viability at 72 h: at the compound's IC50 in MCF-7 cells, read-out: % Viable cells at IC50. Here is the method: (§1) As previously reported mammary glands from 14–18 day pregnant CD-1 mice were used as source and primary mammary epithelial cell cultures were prepared from these. The isolated mammary epithelial cells were seeded at two concentrations (25,000 cells/mL and 50,000 cells/mL). […] After 24 h, the cells were treated with 2 µL volumes of test compound 7s which had been pre-prepared as stock solutions in ethanol to furnish the concentration range of study, 1 nM–100 µM, and re-incubated for a further 72 h. Control wells contained the equivalent volume of the vehicle ethanol (1% v/v). The cytotoxicity was assessed using alamar blue dye.
Background: Resazurin is reduced to fluorescent resorufin, in cell work by metabolically active cells.

Data set [4] deals with normal murine mammary epithelial cells. The data set is described as above. To be noted: for IC50: Mus musculus, Epithelial cell, alamar blue; for IC50 / % Viable cells at IC50: 72 h; for % Viable cells at IC50: at the compound's IC50 in MCF-7 cells, 25,000 cells/mL. The format is cell-based, mouse. Here is the method: as §1
In data set [5] the test system is MCF-7 cells. The experiment in a line: Cell cycle analysis (PI flow cytometry). The format is cell-based, human. The settings on record: for apoptotic cells (sub-G0G1): 72 h. Here is the method: MCF-7 cells (adherent and detached) were treated with the appropriate concentration of compound 7s and incubated for the designated time. Cells were collected, trypsinised and centrifuged at 800× g for 15 min. Cells were washed twice with ice-cold PBS and fixed in ice-cold 70% ethanol overnight at −20 °C. Fixed cells were centrifuged at 800× g for 15 min and stained with 50 μg/mL of PI, containing 50 μg/mL of DNase-free RNase A, at 37 °C for 30 min.
In general terms: A flow cytometer gives signals particle by particle.

Data set [6] has as its system colchicine-binding site of tubulin. The experiment in a line: Colchicine-binding site assay (EBI cross-linking, Western blot) in MCF-7 cells. It is filed as cell-based, human. To be noted: 10 μM for 2 h, then EBI 100 μM for 1.5 h. Here is the method: MCF-7 cells were seeded at a density of 5 × 10^4 cells/well in 6-well plates and incubated overnight. Cells were treated with vehicle control [ethanol (0.1% v/v)] or compound 7s (10 μM) for 2 h. After this time, selected wells were treated with N,N′-ethylene-bis(iodoacetamide)(EBI) (100 μM) (Santa Cruz Biotechnology Inc. 10410 Finnell Street, Dallas, Texas, USA) for 1.5 h. Following treatment, cells were twice washed with ice-cold PBS and lysed by addition of Laemmli buffer. Samples were separated by SDS-PAGE, trasnsferred to polyvinylidene difluoride membranes and probed with β-tubulin antibodies (Sigma-Aldrich, 2033 Westport Center Dr, St. Louis, MO, USA).
(In western blotting, separated proteins are transferred to a membrane and probed.)

For data set [7], the system named is microtubule network of MCF-7 cells. As to the kind of experiment: Immunofluorescence microscopy. The format is cell-based, human. To be noted: 100 nM, 16 h. Here is the method:
Confocal microscopy was used to study the effects of drug treatment on MCF-7 cytoskeleton. For immunofluorescence, MCF-7 cells were seeded at 1 × 10^5 cells/mL on eight chamber glass slides (BD Biosciences, 2350 Qume Dr, San Jose, CA, USA). Cells were either untreated or treated with vehicle [1% ethanol (v/v)], paclitaxel (1 μM), combretastatin A-4 (100 nM) or compound 7s (100 nM) for 16 h. Following treatment cells were gently washed in PBS, fixed for 20 min with 4% paraformaldehyde in PBS and permeabilised in 0.5% Triton X-100. Following washes in PBS containing 0.1% Tween (PBST), cells were blocked in 5% bovine serum albumin diluted in PBST. Cells were then incubated with mouse monoclonal anti-α-tubulin−FITC antibody (clone DM1A) (Sigma-Aldrich, 2033 Westport Center Dr, St. Louis, MO, USA) (1:100) for 2 h at room temperature. Following washes in PBST, cells were incubated with Alexa Fluor 488 dye (1:450) for 1 h at room temperature. Following washes in PBST, the cells were mounted in Ultra Cruz Mounting Media (Santa Cruz Biotechnology Inc., 10410 Finnell Street, Dallas, TX, USA) containing 4,6-diamino-2-phenolindol dihydrochloride (DAPI). Images were captured by Leica SP8 confocal microscopy with Leica application suite X software (Leica Microsystems CMS GmbH Am Friedensplatz 3 D-68165 Mannheim, Germany). All images in each experiment were collected on the same day using identical parameters. Experiments were performed on three independent occasions.

Data set [8] relates to MCF-7 cells. As to the kind of experiment: Annexin V/PI apoptotic assay. The settings on record: for apoptotic cells (annexin-V positive): MCF-7, 72 h.
Protocol: Apoptotic cell death was detected by flow cytometry using Annexin V and propidium iodide (PI). […] Cells were then harvested and prepared for flow cytometric analysis. Cells were washed in 1X binding buffer (20X binding buffer: 0.1M HEPES, pH 7.4; 1.4 M NaCl; 25 mM CaCl2 diluted in dH2O) and incubated in the dark for 30 min on ice in Annexin V-containing binding buffer [1:100]. Cells were then washed once in binding buffer and then re-suspended in PI-containing binding buffer [1:1000]. […] Four populations are produced during the assay Annexin V and PI negative (Q4, healthy cells), Annexin V positive and PI negative (Q3, early apoptosis), Annexin V and PI positive (Q2, late apoptosis) and Annexin V negative and PI positive (Q1, necrosis). Paclitaxel was used as a positive control for cell death
Data set [9] relates to EKVX. The experiment in a line: NCI60 screen (SRB), Non-Small Cell Lung Cancer. The format is cell-based. The settings on record: Homo sapiens.
The subject of data set [10] is NCI-H226. The experiment in a line: NCI60 screen (SRB), Non-Small Cell Lung Cancer. The format is cell-based. The settings on record: Homo sapiens.
Data set [11] concerns NCI-H552. As to the kind of experiment: NCI60 screen (SRB), Non-Small Cell Lung Cancer. It is filed as cell-based.
Data set [12] concerns HEK-293T cells. As to the kind of experiment: Cytotoxicity in non-tumourigenic HEK-293T cells. It is filed as cell-based, human.
The subject of data set [13] is HOP-92. The experiment in a line: NCI60 screen (SRB), Non-Small Cell Lung Cancer. It is filed as cell-based. To be noted: Homo sapiens.
Data set [14] in a line: Whole blood stability study. The format is in vitro ADME. The settings on record: 37 °C.
The mark [15] stands for this setting: Homo sapiens, MCF7, 72 h, read-out: Viable.

Like-named read-outs stand apart in the source and are kept apart here. Some results are limits rather than exact numbers.

With `COc1ccc(/C=C\c2cc(OC)c(OC)c(OC)c2)cc1O` [CA-4, Combretastatin A-4, reference compound], the IC50 in data set [1] (triple-negative Hs578T cells, read-out: IC50) is 8 nM; in data set [2] (invasive Hs578Ts(i)8 cells, read-out: IC50), 20 nM; in data set [4], > 10000 nM. The viability at 72 h, 10 μM in data set [3] (10 μM, 25,000 cells/mL) was 58%; in data set [3] (10 μM, 50,000 cells/mL) it was 75%. For the same compound, the viability at 72 h is 74% in [3] (25,000 cells/mL) and 92.1% in [3] (50,000 cells/mL). Besides, in data set [4], the “% Viable cells at IC50” value is listed as 73.6%. For the same compound, the “cells in G2M arrest” value in data set [5] (100 nM, 48 h) amounted to 52%. This compound also showed a sub-G0G1 population in [5] (100 nM, 48 h) of 9.4%. Also, the β-tubulin-EBI adduct formation result in [6] is “EBI adduct formation is inhibited”. Moreover, the “effect on microtubule network” value in data set [7] is given as “complete loss of microtubule formation”. For the same compound, the viability at 0.05 µM in data set [8] (setting [15]) stood at 61.8%. In addition, the “apoptotic cells (annexin-V positive)” value in data set [8] (50 nM) is 34.6%.

Take `C=CC1C(=O)N(c2cc(OC)c(OC)c(OC)c2)C1c1ccc(OC)cc1` (stereo not shown) [Compound 7h, 4-(4-Methoxyphenyl)-1-(3,4,5-trimethoxyphenyl)-3-vinylazetidin-2-one]: the 50% inhibitory concentration (IC50) in data set [1] came out at 31 nM; in [2], 76 nM. Besides, the GI50 in data set [9] came to 58.3 nM; in data set [10], 33.9 nM; in [11], 20.6 nM.

For `C=CC1C(=O)N(c2cc(OC)c(OC)c(OC)c2)C1c1ccc(OC)c(O)c1` (stereo not shown) [Compound 7s, 4-[3-Hydroxy-4-methoxyphenyl]-1-(3,4,5-trimethoxyphenyl)-3-vinylazetidin-2-one], the “cytotoxicity against non-tumorigenic HEK-293T cells” value in [12] is given as “minimal cytotoxicity”. Also, the IC50 was > 5000 nM in data set [12] (Homo sapiens, non-tumourigenic HEK-293T cells) and > 10000 nM in data set [4]. Further, the viability at 72 h, 10 μM in data set [3] (10 μM, 25,000 cells/mL) turned out to be 60%; in [3] (10 μM, 50,000 cells/mL), 73.3%. Also, the results for the viability at 72 h in [3] (25,000 cells/mL) and in data set [3] (50,000 cells/mL) were 93% and > 90%, respectively. Moreover, the “cytotoxicity against murine mammary epithelial cells” value in data set [4] was “minimal cytotoxicity”. Besides, the “% Viable cells at IC50” value in data set [4] worked out at 93.1%. Also, the “cells in G2M arrest” value in data set [5] (10 nM, 24 h) came out at 64%; in data set [5] (100 nM, 24 h), 82%. The “apoptotic cells (sub-G0G1)” value stood at 14% in data set [5] (10 nM) and 26% in data set [5] (100 nM). For the same compound, the β-tubulin-EBI adduct formation result in data set [6] was “EBI adduct formation is inhibited”. The “effect on microtubule network” value in data set [7] is “complete loss of microtubule formation”. Further, the viability at 0.01 µM in data set [8] (setting [15]) was 82.8%. In addition, the viability at 0.1 µM in data set [8] (setting [15]) was found to be 64.5%. For the same compound, the “apoptotic cells (annexin-V positive)” value is “About 13.6%” in data set [8] (10 nM) and 31.9% in data set [8] (100 nM).

With `C=CC1C(=O)N(c2cc(OC)c(OC)c(OC)c2)C1c1ccc(OC)c(N)c1` (stereo not shown) [Compound 7t, 4-(3-Amino-4-methoxyphenyl)-1-(3,4,5-trimethoxyphenyl)-3-vinylazetidin-2-one], the GI50 was 39.3 nM in data set [13], 38.7 nM in [10] and < 10 nM in data set [11].

For the compound `C=CC1C(=O)N(c2cc(OC)c(OC)c(OC)c2)C1c1ccc(OC)c(OP(=O)(O)O)c1` (stereo not shown) [Compound 17b, 2-Methoxy-5-(1-(3,4,5-trimethoxyphenyl)-4-oxo-3-vinylazetidin-2-yl)phenyl dihydrogen phosphate], the “remaining after 6 h” value in [14] is 62%.

In the case of `CCC1C(=O)N(c2cc(OC)c(OC)c(OC)c2)C1c1ccc(OC)c(OP(=O)(O)O)c1` (stereo not shown) [Compound 17c, 5-(3-Ethyl-1-(3,4,5-trimethoxyphenyl)-4-oxoazetidin-2-yl)-2-methoxyphenyl dihydrogen phosphate], the “remaining after 6 h” value in [14] was determined as 34%.
